Laboratory results published in patent US6737383B1, “Herbicidal oxadiazolidines” (priority 1999, dated 2004).

What was measured:
bedstraw = assay: Test B pre/postemergence bedstraw; type: in vivo, Galium aparine
Summary of the method: (§1)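 Response is a visual 0-to-10 score relative to untreated plants, where 0 means no effect and 10 means complete control, taken twelve to sixteen days after application. Treatments went onto soil at planting and onto foliage of 1- to 4-leaf plants, using a surfactant-containing non-phytotoxic solvent.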

blackgrass = assay: Test B pre/postemergence blackgrass; type: in vivo, Alopecurus myosuroides
Summary of the method: as §1

wheat = assay: Test B pre/postemergence wheat; type: in vivo, Triticum aestivum
Summary of the method: as §1

velvetleaf = assay: Test B pre/postemergence velvetleaf; type: in vivo, Abutilon theophrasti
Summary of the method: as §1

pigweed = assay: Test B pre/postemergence pigweed; type: in vivo, Amaranthus retroflexus
Summary of the method: as §1

wild oat = assay: Test B pre/postemergence wild oat; type: in vivo, Avena fatua
Summary of the method: as §1

rice = assay: Test B flood test rice; type: in vivo, Oryza sativa
Summary of the method: (§2)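 Each value is a visual injury score relative to controls, with 10 meaning complete control and 0 no effect. Evaluation took place twelve to sixteen days after the 2-leaf-stage plants were treated and kept in the greenhouse.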

smallflower flatsedge = assay: Test B flood test smallflower flatsedge; type: in vivo, Cyperus difformis
Summary of the method: as §2

sugar beet = assay: Test B pre/postemergence sugar beet; type: in vivo, Beta vulgaris
Summary of the method: as §1

morningglory = assay: Test B pre/postemergence morningglory; type: in vivo, Ipomoea hederacea
Summary of the method: as §1

corn = assay: Test B pre/postemergence corn; type: in vivo, Zea mays
Summary of the method: as §1

cocklebur = assay: Test B pre/postemergence cocklebur; type: in vivo, Xanthium strumarium
Summary of the method: as §1

soybean = assay: Test B pre/postemergence soybean; type: in vivo, Glycine max
Summary of the method: as §1

giant foxtail = assay: Test B pre/postemergence giant foxtail; type: in vivo, Setaria faberii
Summary of the method: as §1

surinam grass = assay: Test B pre/postemergence surinam grass; type: in vivo, Brachiaria decumbens
Summary of the method: as §1

rape = assay: Test B pre/postemergence rape; type: in vivo, Brassica napus
Summary of the method: as §1

[1] = Preemergence, Rate 62 g/ha, scale of 0 to 10 where 0 is no effect and 10 is complete control
[2] = Preemergence, Rate 250 g/ha, scale of 0 to 10 where 0 is no effect and 10 is complete control
[3] = Preemergence, Rate 500 g/ha, scale of 0 to 10 where 0 is no effect and 10 is complete control
[4] = Rate 62 g/ha, Postemergence, scale 0 to 10 (0 no effect, 10 complete control)
[5] = Rate 125 g/ha, Postemergence, scale of 0 to 10 where 0 is no effect and 10 is complete control
[6] = Rate 125 g/ha, Preemergence, scale of 0 to 10 where 0 is no effect and 10 is complete control
[7] = Rate 250 g/ha, Postemergence, scale of 0 to 10 where 0 is no effect and 10 is complete control
[8] = Rate 500 g/ha, Postemergence, scale 0 to 10, 0 no effect, 10 complete control
[9] = Rate 62 g/ha, headed Pre-emergence (flood test species), scale 0 to 10 (0 no effect, 10 complete control)
[10] = Rate 125 g/ha, Pre-emergence, flood test species, scale 0 to 10 where 0 is no effect and 10 is complete control
[11] = Rate 250 g/ha, Pre-emergence, flood-test species, scale 0 to 10, 0 is no effect, 10 is complete control
[12] = Rate 500 g/ha, Pre-emergence, flood test species, scale 0 to 10 (0 no effect, 10 complete control)

CC(C)N(C(=O)n1oc(=O)n(C2CCCC2)c1=O)c1ccc(F)cc1F [Compound 284]
Bedstraw plant response rating (bedstraw; [1]): 0 | Bedstraw plant response rating (bedstraw; [2]): 8 | Plant response rating, Bedstraw (bedstraw; [3]): 8 | Bedstraw plant response rating (bedstraw; [4]): 2 | Bedstraw plant response rating (bedstraw; [5]): 5 | Bedstraw plant response rating (bedstraw; [6]): 8 | Plant response rating, Bedstraw (bedstraw; [7]): 6 | Bedstraw plant response rating (bedstraw; [8]): 9 | Blackgrass plant response rating (blackgrass; [1]): 0 | Blackgrass plant response rating (blackgrass; [2]): 8 | Plant response rating, Blackgrass (blackgrass; [3]): 10 | Blackgrass plant response rating (blackgrass; [4]): 3 | Blackgrass plant response rating (blackgrass; [5]): 5 | Blackgrass plant response rating (blackgrass; [6]): 4 | Plant response rating, Blackgrass (blackgrass; [7]): 7 | Blackgrass plant response rating (blackgrass; [8]): 8 | Wheat plant response rating (wheat; [1]): 0 | Wheat plant response rating (wheat; [2]): 0 | Plant response rating, Wheat (wheat; [3]): 0 | Wheat plant response rating (wheat; [4]): 0 | Wheat plant response rating (wheat; [5]): 0 | Wheat plant response rating (wheat; [6]): 0 | Plant response rating, Wheat (wheat; [7]): 0 | Velvetleaf plant response rating (velvetleaf; [1]): 0 | Velvetleaf plant response rating (velvetleaf; [2]): 0 | Plant response rating, Velvetleaf (velvetleaf; [3]): 7 | Velvetleaf plant response rating (velvetleaf; [4]): 0 | Velvetleaf plant response rating (velvetleaf; [5]): 0 | Velvetleaf plant response rating (velvetleaf; [6]): 0 | Plant response rating, Velvetleaf (velvetleaf; [7]): 2 | Redroot pigweed plant response rating (pigweed; [1]): 5 | Redroot pigweed plant response rating (pigweed; [2]): 7 | Plant response rating, Redroot pigweed (pigweed; [3]): 8 | Redroot pigweed plant response rating (pigweed; [4]): 3 | Redroot pigweed plant response rating (pigweed; [5]): 4 | Redroot pigweed plant response rating (pigweed; [6]): 6 | Plant response rating, Redroot pigweed (pigweed; [7]): 6 | Wild oats plant response rating (wild oat; [1]): 0 | Wild oats plant response rating (wild oat; [2]): 3 | Plant response rating, Wild oats (wild oat; [3]): 5 | Wild oats plant response rating (wild oat; [4]): 0 | Wild oats plant response rating (wild oat; [5]): 0 | Plant response rating, Wild oats (wild oat; [7]): 0 | Rice plant response rating (rice; [9]): 0 | Rice plant response rating (rice; [10]): 0 | Rice plant response rating (rice; [11]): 0 | Rice plant response rating (rice; [12]): 0 | S. Flatsedge plant response rating (smallflower flatsedge; [9]): 0 | S. Flatsedge plant response rating (smallflower flatsedge; [10]): 0 | S. Flatsedge plant response rating (smallflower flatsedge; [11]): 0 | S. Flatsedge plant response rating (smallflower flatsedge; [12]): 0 | Sugarbeets plant response rating (sugar beet; [1]): 2 | Sugarbeets plant response rating (sugar beet; [2]): 6 | Plant response rating, Sugarbeets (sugar beet; [3]): 6 | Sugarbeets plant response rating (sugar beet; [4]): 1 | Sugarbeets plant response rating (sugar beet; [5]): 3 | Sugarbeets plant response rating (sugar beet; [6]): 5 | Plant response rating, Sugarbeets (sugar beet; [7]): 5 | Morningglory plant response rating (morningglory; [1]): 0 | Morningglory plant response rating (morningglory; [2]): 1 | Plant response rating, Morningglory (morningglory; [3]): 2 | Morningglory plant response rating (morningglory; [4]): 7 | Morningglory plant response rating (morningglory; [5]): 7 | Morningglory plant response rating (morningglory; [6]): 1 | Plant response rating, Morningglory (morningglory; [7]): 7 | Corn plant response rating (corn; [1]): 0 | Corn plant response rating (corn; [2]): 0 | Plant response rating, Corn (corn; [3]): 0 | Corn plant response rating (corn; [4]): 0 | Corn plant response rating (corn; [5]): 0 | Corn plant response rating (corn; [6]): 0 | Plant response rating, Corn (corn; [7]): 0 | Corn plant response rating (corn; [8]): 0 | Cocklebur plant response rating (cocklebur; [1]): 0 | Plant response rating, Cocklebur (cocklebur; [3]): 0 | Cocklebur plant response rating (cocklebur; [4]): 0 | Cocklebur plant response rating (cocklebur; [5]): 2 | Plant response rating, Cocklebur (cocklebur; [7]): 2 | Cocklebur plant response rating (cocklebur; [8]): 2 | Soybean plant response rating (soybean; [1]): 0 | Soybean plant response rating (soybean; [2]): 0 | Plant response rating, Soybean (soybean; [3]): 3 | Soybean plant response rating (soybean; [4]): 4 | Soybean plant response rating (soybean; [5]): 4 | Soybean plant response rating (soybean; [6]): 0 | Plant response rating, Soybean (soybean; [7]): 4 | Giant foxtail plant response rating (giant foxtail; [1]): 9 | Giant foxtail plant response rating (giant foxtail; [2]): 9 | Plant response rating, Giant foxtail (giant foxtail; [3]): 10 | Giant foxtail plant response rating (giant foxtail; [4]): 0 | Giant foxtail plant response rating (giant foxtail; [5]): 2 | Giant foxtail plant response rating (giant foxtail; [6]): 9 | Plant response rating, Giant foxtail (giant foxtail; [7]): 3 | B. signalgrass plant response rating (surinam grass; [1]): 5 | B. signalgrass plant response rating (surinam grass; [2]): 5 | Plant response rating, B. signalgrass (surinam grass; [3]): 8 | B. signalgrass plant response rating (surinam grass; [4]): 0 | B. signalgrass plant response rating (surinam grass; [5]): 0 | B. signalgrass plant response rating (surinam grass; [6]): 5 | Plant response rating, B. signalgrass (surinam grass; [7]): 0 | B. signalgrass plant response rating (surinam grass; [8]): 1 | Rape plant response rating (rape; [1]): 2 | Rape plant response rating (rape; [2]): 7 | Plant response rating, Rape (rape; [3]): 7 | Rape plant response rating (rape; [4]): 1 | Rape plant response rating (rape; [5]): 3 | Rape plant response rating (rape; [6]): 2 | Plant response rating, Rape (rape; [7]): 4
